Data from the NIST ThermoML archive (doi:10.1016/j.jct.2016.06.032).
Numbers after ± are expanded uncertainties.

How the values were obtained:
[1] = Molar enthalpy of transition or fusion; settings: Crystal; DSC
[2] = Crystal; DTA

## N#Cc1ccccc1-c1ccc(CBr)cc1 [4'-(bromomethyl)-2-cyanobiphenyl]
[1]
  Molar enthalpy of transition or fusion: 7 ± 0.454 kcal/mol
[2]
  Normal melting temperature: 125.90 ± 1.1 °C
